Results: PubChem BioAssay (NCI)
Where “and” joins values, the source holds several entries; their conditions need not be identical. Equal entries are not always repeated.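 48-hour exposure; five concentrations; linearly interpolated endpoints. At the GI50, growth is halved. TGI: total growth inhibition.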

Assays:
Experiment in all cases: inhibition of tumour cell growth, NCI panel, 48 h
[1] = tested on: OVCAR-3 ovarian
[2] = tested on: NCI-H226 lung
[3] = tested on: SK-MEL-5 melanoma
[4] = tested on: TK-10 renal
[5] = tested on: SF-539 CNS
[6] = tested on: HOP-92 NSCLC
[7] = tested on: NCI-H23 lung
[8] = tested on: MOLT-4 leukemia
[9] = tested on: SNB-75 CNS
[10] = tested on: SNB-19 CNS

Row | Structure (SMILES) | TGI [1] | TGI [2] | TGI [3] | TGI [4] | TGI [5] | TGI [6] | TGI [7] | TGI [8] | TGI [9] | TGI [10] | GI50 [1] | GI50 [2] | GI50 [3] | GI50 [4] | GI50 [5] | GI50 [6] | GI50 [7] | GI50 [8] [µM] | GI50 [9] | GI50 [10]
1 | CC(=O)N(C)OC(=O)CC(=O)c1ccccc1 | > 100 µM | > 100 µM | > 100 µM | > 100 µM | > 100 µM | > 100 µM | > 100 µM | > 100 µM | > 100 µM | > 100 µM | – | – | – | – | – | – | – | – | – | –
2 | O=S(=O)([O-])[O-].[OH3+].[OH3+].[OH3+].[Ru+2].c1ccccc1 | > 100 µM | > 100 µM | > 100 µM | > 100 µM | > 100 µM | > 100 µM | > 100 µM | > 100 µM | > 100 µM | > 100 µM | > 100 µM | > 100 µM | > 100 µM | > 100 µM | > 100 µM | > 100 µM | > 100 µM | > 100 | > 100 µM | > 100 µM
3 | N#CC1=C(N)Oc2cc3c(cc2C1c1cccs1)OCO3 (stereo not drawn) | 0.644 µM | > 100 µM | > 43.5 µM | > 67.8 µM | 11.2 µM | 26.2 µM | > 100 µM | > 100 µM | 4.74 µM | > 100 µM | 0.236 µM | 0.653 µM | 0.34 µM | 1.86 µM | 0.747 µM | 0.66 µM | 0.428 µM | 0.504 | 0.367 µM | 1.36 µM
4 | Cn1c(C(N)=O)cc2c1-c1nc(Nc3ccccc3)ncc1CCC2 | 57.1 µM | 33.7 µM | 25.8 µM | 52.3 µM | 28 µM | 8.32 µM | 32.9 µM | 50.4 µM | 8.35 µM | > 100 µM | 10.1 µM | 0.902 µM | 11.4 µM | 3.97 µM | 3.93 µM | 1.47 µM | 4.91 µM | 4.21 | 1.61 µM | 11.5 µM
5 | COc1ccc(C(=O)/C=C/c2ccc(O)c(O)c2F)c(OC)c1 | – | 37.1 µM and 46.3 µM | 13.6 µM and 19.6 µM | 28.5 µM and 23.4 µM | 15.7 µM and 28.5 µM | 75 µM and > 100 µM | 12.6 µM and 32.1 µM | 75 µM and 11.6 µM | 40.3 µM and 18.9 µM | 19 µM and 26.1 µM | 2.63 µM | – | 2.7 µM | 7.64 µM | 4.5 µM | 36 µM | 5.27 µM | 0.259 | 4.53 µM | 10.7 µM
6 | COc1cccc(-c2nn(-c3ccccc3)cc2-c2ccnc(NCCNS(=O)(=O)c3ccc(Cl)cc3)c2)c1 | > 100 µM | > 100 µM | 3.88 µM | > 100 µM | > 100 µM | 9.48 µM | > 100 µM | 9 µM | > 100 µM | > 100 µM | 4.32 µM | 7.21 µM | 1.94 µM | 4.75 µM | 7.35 µM | 2.46 µM | 4.32 µM | 2.56 | 7.92 µM | 7.44 µM
7 | CCN(CC)CCCN(c1cc(OC)cc2nccnc12)S(=O)(=O)c1ccc(C)cc1 | > 100 µM | > 100 µM | > 100 µM | > 100 µM | > 100 µM | > 100 µM | > 100 µM | > 100 µM | > 100 µM | > 100 µM | – | – | – | – | – | – | – | – | – | –
8 | O=C1/C(=C/c2cccc([N+](=O)[O-])c2)COc2ccc(O)c(O)c21 | 2.71 µM | 8.33 µM | 2.95 µM | 3.21 µM | 3.57 µM | 8.22 µM | 3.95 µM | 12.1 µM | 5.72 µM | 2.98 µM | 1.2 µM | 2.35 µM | 1.55 µM | 1.7 µM | 1.61 µM | 2.24 µM | 1.75 µM | 2.12 | 1.28 µM | 1.55 µM
9 | COc1cc(/C=C(/C)[N+](=O)[O-])ccc1O | 3.46 µM and 3.17 µM | 6.96 µM and 14.2 µM | 3.92 µM and 3.57 µM | 3.57 µM and 2.82 µM | 4 µM and 3.68 µM | 4.4 µM and 4.28 µM | 5.23 µM | 9.14 µM | 15.1 µM and 8.45 µM | 16.2 µM and 17.5 µM | 1.96 µM and 1.61 µM | 2.58 µM and 4.07 µM | 1.91 µM and 1.9 µM | 1.97 µM and 1.48 µM | 2 µM and 1.81 µM | 1.62 µM and 1.84 µM | 2.05 µM and 2.09 µM | 3.3 | 3.64 µM and 1.91 µM | 4.55 µM and 5.02 µM
10 | CC(C)(C)NNC(=O)/C(=C/c1ccc(Oc2ccc(Cl)c(Cl)c2)cc1)NC(=O)c1ccccc1 | > 100 µM | > 100 µM | > 100 µM | > 100 µM | > 100 µM | > 100 µM | > 100 µM | > 100 µM | > 100 µM | > 100 µM | – | – | – | – | – | – | – | – | – | –
11 | O=C(Nc1ccc(-c2nc3cc4ccccc4cc3[nH]2)cc1)c1cccc(Br)c1 | 10.3 µM | 50.2 µM | 21.4 µM | 11.3 µM | 26.7 µM | 17.8 µM | 50.3 µM | > 100 µM | 26.4 µM | > 100 µM | 3.64 µM | 21.4 µM | 6.58 µM | 4 µM | 12.9 µM | 4 µM | 19.2 µM | 27.6 | 12.4 µM | 39.2 µM
12 | Cc1cc2c(c3c1c1ccccc1n3C)C(=O)C=CC2=O | 22.9 µM | > 100 µM | > 90.1 µM | 65 µM | 71 µM | 31.4 µM | 31 µM | 12 µM | > 100 µM | > 100 µM | – | – | – | – | – | – | – | – | – | –
13 | O=C(/C=C/c1ccco1)c1ccc(Nc2nc(Nc3ccc(F)cc3)nc(Nc3ccc(Cl)cc3)n2)cc1 | 56.8 µM | > 82.2 µM | > 100 µM | > 35.9 µM | 28.3 µM | > 45.4 µM | > 63.4 µM | > 49.7 µM | > 80.9 µM | > 70 µM | 18 µM | > 35.4 µM | 23.7 µM | 10.3 µM | 14.2 µM | 2.69 µM | 17.9 µM | > 19.8 | 30.5 µM | 34.8 µM
14 | COc1ccc(C(=O)Cn2c(C(=O)c3ccc(Cl)cc3)nc3ccccc32)cc1 | > 77.6 µM | > 100 µM | > 100 µM | > 100 µM | > 100 µM | > 100 µM | > 100 µM | > 100 µM | > 100 µM | > 100 µM | > 20.3 µM | > 100 µM | 5.95 µM | > 62.9 µM | 99.3 µM | > 100 µM | > 57.9 µM | 3.83 | 20.9 µM | 46.5 µM
